This note sets out measurements from patent US10000484B2, “Inhibitors of the renal outer medullary potassim channel” (MERCK SHARP & DOHME CORP., priority 2013, dated 2018).

The target in the first assay is T1, hROMK (hKir1.1) (Homo sapiens, UniProt P48048).
T1 construct: expressed in transfected cells
T1 sequence (P48048 1-391): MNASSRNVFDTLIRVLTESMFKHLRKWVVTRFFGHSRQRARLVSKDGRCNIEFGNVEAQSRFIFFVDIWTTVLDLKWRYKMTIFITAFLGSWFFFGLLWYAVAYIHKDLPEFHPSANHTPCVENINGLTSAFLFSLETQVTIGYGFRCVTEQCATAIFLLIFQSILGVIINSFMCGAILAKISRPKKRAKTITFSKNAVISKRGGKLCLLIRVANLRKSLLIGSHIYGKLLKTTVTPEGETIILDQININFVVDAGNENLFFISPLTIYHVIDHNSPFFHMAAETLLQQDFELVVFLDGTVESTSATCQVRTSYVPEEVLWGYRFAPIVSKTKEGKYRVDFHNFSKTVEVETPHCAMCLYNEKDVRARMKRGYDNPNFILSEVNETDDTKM
The assay is described as follows: Thallium Flux Assay (ROMK channel functional thallium flux assay, FLIPR-Tetra). The note with it: HEK293 cells stably expressing hROMK; 30 min incubation with compound. Type of assay: cell-based. The procedure: The following Thallium Flux Assay was performed on each of the final product compounds in the Examples. When the final product of an Example was an HCl salt, the salt was run in the Assay.
HEK293 cells stably expressing hROMK (hKir1.1) were grown at 37° C. in a 10% CO2 humidified incubator in complete growth media: Dulbecco's Modified Eagle Medium supplemented with non-essential amino acids, Penicillin/Streptomycin/Glutamine, G418 and FBS. At >80% confluency, aspirate the media from the flask and rinse with 10 mL Calcium/Magnesium-free PBS. Add 5 mL of 1× trypsin (prepared in Ca/Mg Free PBS) to T-225 flask and return flask to 37° C./CO2 incubator for 2-3 minutes. To dislodge the cell, gently bang the side of the flask with your hand. Triturate the cells completely and then transfer the cells to 25 mL complete media. Centrifuge at 1,500 rpm for 6 min followed by resuspension in complete growth media and determine cell concentration. For typical re-seeding, 4E6 cells/T-225 flask will attain >80% confluency in 4 days. Under ideal growth conditions and appropriate tissue culture practices, this cell line is stable for 40-45 passages.
FluxOR Kit Components (Invitrogen F10017)
• FluxOR™ Reagent (Component A) • FluxOR™ Assay Buffer (Component B)—10× Concentrate • PowerLoad™ Concentrate (Component C)—100× Concentrate • Probenecid (Component D)—Lyophilized sample is kept at −20° C. Water soluble, 100× after solubilization in 1 mL water. Store at 4° C. • FluxOR™ Chloride-free Buffer (Component E)—5× Concentrate • Potassium sulfate (K2SO4) Concentrate (Component F)—125 mM in water. Store at 4° C. • Thallium sulfate (Tl2SO4) Concentrate (Component G)—50 mM in water. Store at 4° C. • DMSO (dimethyl sulfoxide, Component H)—1 mL (100%) Reagent Preparation: FluxOR Working Solutions • 1000× FluxOR™ Reagent: Reconstitute a vial of component A in 100 μl DMSO; Mix well; Store 10 μl aliquots at −20° C. • 1× FluxOR™ Assay Buffer: Dilute Component B 10-fold with water; Adjust pH to 7.4 with Hepes/NaOH; Filter and store at 4° C. • Probenecid/Assay Buffer: 100 mL of 1× FluxOR™ Assay Buffer; 1 mL of reconstituted component D; Store at 4° C. • Loading Buffer (per microplate): 10 μl 1000× FluxOR™ Reagent; 100 μl component C; 10 mL Probenecid/Assay Buffer • Compound Buffer (per microplate): 20 mL Probenecid/Assay Buffer; 0.3 mM ouabain (10 mM ouabain in water can be stored in amber bottle/aluminum foil at room temperature); Test compound • 1× FluxOR™ Chloride-Free Buffer: Prepare 1× working solution in water. Can be stored at room temperature • Stimulant Buffer (prepared at 5× final concentration in 1× FluxOR™ Chloride-Free Buffer): 7.5 mM Thallium sulfate and 0.75 mM Potassium sulfate (to give a final assay concentration of 3 mM Thallium/0.3 mM Potassium). Store at 4° C. when not in use. Assay Protocol—
The ROMK channel functional thallium flux assay is performed in 384 wells, using the FLIPR-Tetra instrument. HEK-hKir1.1 cells are seeded in Poly-D-Lysine microplates and kept in a 37° C.-10% CO2 incubator overnight. On the day of the experiment, the growth media is replaced with the FluxOR™ reagent loading buffer and incubated, protected from light, at ambient temperature (23-25° C.) for 90 min. The loading buffer is replaced with assay buffer±test compound followed by 30 min incubation at ambient temperature, where the Thallium/Potassium stimulant is added to the microplate.
1. Seed HEK-hKir1.1 cells (50 μl at 20,000 cells/well) in 384-well PDL coated Microplates
2. Allow cells to adhere overnight in humidified 37° C./10% CO2 incubator
3. Completely remove cell growth media from microplate and replace with 25 μl loading buffer
4. Incubate Microplate at room temperature, protected form light, for 90 min
5. Remove loading buffer and replace with 25 μl 1× Assay Buffer±test compound.
6. Incubate microplate at room temperature, protected from light, for 30 min
7. At FLIPR-Tetra 384: Add stimulant (Thallium/Potassium) solution to microplate and monitor fluorescence. […]
On to `O=C1OCCc2cc(CCN3CCn4cc(-c5ccc6c(c5)COC6=O)nc4C3)ccc21` [Example 20, 6-{2-[2-(1-oxo-1,3-dihydro-2-benzofuran-5-yl)-5,6-dihydroimidazo[1,2-a]pyrazin-7(8H)-yl]ethyl}-3,4-dihydro-1H-isochromen-1-one], for which the IC50 turned out to be 192 nM.

Take `Cc1c([C@@H](O)CN2CCc3c(cnn3-c3ccc(C#N)cn3)C2)ccc2c1COC2=O` [Example 43, 6-{5-[(2R)-2-hydroxy-2-(4-methyl-1-oxo-1,3-dihydro-2-benzofuran-5-yl)ethyl]-4,5,6,7-tetrahydro-1H-pyrazolo[4,3-c]pyridin-1-yl}pyridine-3-carbonitrile]: the half-inhibitory concentration (IC50) is 592 nM.

Turning to `COc1cc(-c2nnc3n2CCN(CCc2ccc4c(c2C)COC4=O)C3)ccc1C#N` [Example 14, 2-methoxy-4-{7-[2-(4-methyl-1-oxo-1,3-dihydro-2-benzofuran-5-yl)ethyl]-5,6,7,8-tetrahydro[1,2,4]triazolo[4,3-a]pyrazin-3-yl}benzonitrile], the half-maximal inhibitory concentration (IC50) is 85 nM.

As to `Cc1c([C@@H](O)CN2CCc3cc(-c4ccc5c(c4)C[C@H](C)OC5=O)ccc3C2)ccc2c1COC2=O` [Example 47, 2-[(2R)-2-hydroxy-2-(4-methyl-1-oxo-1,3-dihydro-2-benzofuran-5-yl)ethyl]-6-[(3S)-3-methyl-1-oxo-3,4-dihydro-1H-isochromen-6-yl]-1,2,3,4-tetrahydroisoquinoline], the IC50 was determined as 249 nM.

`Cc1cc(C#N)ccc1-c1ncc2c(n1)CCN(CC(O)c1ccc3c(c1C)COC3=O)C2` (stereo not shown) [Example 39, 4-{6-[2-hydroxy-2-(4-methyl-1-oxo-1,3-dihydro-2-benzofuran-5-yl)ethyl]-5,6,7,8-tetrahydropyrido[4,3-d]pyrimidin-2-yl}-3-methylbenzonitrile]: the half-maximal inhibitory concentration (IC50) amounted to 337 nM.

Consider `Cc1c(CCN2CCn3cc(-c4ccc5c(c4)CCOC5=O)nc3C2)ccc2c1COC2=O` [Example 17, 6-{7-[2-(4-methyl-1-oxo-1,3-dihydro-2-benzofuran-5-yl)ethyl]-5,6,7,8-tetrahydroimidazo[1,2-a]pyrazin-2-yl}-3,4-dihydro-1H-isochromen-1-one], for which the IC50 came out at 654 nM.

Take `Cc1c([C@@H](O)CN2CCc3c(-c4ccc(C#N)c(F)c4)n[nH]c3C2)ccc2c1COC2=O` [Example 42, 3-(4-cyano-3-fluorophenyl)-6-((R)-2-hydroxy-2-(4-methyl-1-oxo-1,3-dihydroisobenzofuran-5-yl)ethyl)-4,5,6,7-tetrahydro-1H-pyrazolo[3,4-c]pyridine]: the half-maximal inhibitory concentration (IC50) was found to be 173 nM.

For the molecule `Cc1cc(C#N)ccc1C1C[C@H]2CN(C[C@H](O)c3ccc4c(c3C)COC4=O)CCN2C1` (stereo partly drawn) [Example 45, 4-{(8aS)-2-[(2R)-2-hydroxy-2-(4-methyl-1-oxo-1,3-dihydro-2-benzofuran-5-yl)ethyl]octahydropyrrolo[1,2-a]pyrazin-7-yl}-3-methylbenzonitrile], the IC50 stood at 131 nM.

`Cc1c(CCN2CCc3nc(-c4ccc(C#N)cn4)ncc3C2)ccc2c1COC2=O` [Example 21]: the half-maximal inhibitory concentration (IC50) was 449 nM.

As for `Cc1c(CCN2CCn3cc(-c4ccc5c(c4)COC5=O)nc3C2)ccc2c1COC2=O` [Example 13, 4-methyl-5-{2-[2-(1-oxo-1,3-dihydro-2-benzofuran-5-yl)-5,6-dihydroimidazo[1,2-a]pyrazin-7(8H)-yl]ethyl}-2-benzofuran-1(3H)-one], the IC50 is 134 nM.

For `CC1=C(N2CC3=C(CCN(C[C@H](O)c4ccc5c(c4C)COC5=O)CC3)C2=O)COC1=O` [Example 31, (R)-6-(2-Hydroxy-2-(4-methyl-1-oxo-1,3-dihydroisobenzofuran-5-yl)ethyl)-2-(4-methyl-5-oxo-2,5-dihydrofuran-3-yl)-2,3,5,6,7,8-hexahydropyrrolo[3,4-d]azepin-1(4H)-one], the concentration for half-maximal inhibition (IC50) is 64 nM.

Turning to `Cc1c(C(O)CN2CCc3nc(-c4ccc(C#N)cn4)ncc3C2)ccc2c1COC2=O` (stereo not shown) [Example 40, 6-{6-[2-hydroxy-2-(4-methyl-1-oxo-1,3-dihydro-2-benzofuran-5-yl)ethyl]-5,6,7,8-tetrahydropyrido[4,3-d]pyrimidin-2-yl}pyridine-3-carbonitrile], the IC50 was 155 nM.

In the case of `O=C1OCc2cc(CCN3CCc4nc(-c5ccc(-n6cnnn6)cc5)ncc4C3)ccc21` [Example 6, 6-[2-(1-oxo-1,3-dihydro-2-benzofuran-5-yl)ethyl]-2-[4-(1H-tetrazol-1-34)phenyl]-5,6,7,8-tetrahydropyrido[4,3-d]pyrimidine-1,6-diium], the concentration for half-maximal inhibition (IC50) worked out at 74 nM.

`Cc1c([C@@H](O)CN2CCn3c(-c4ccc5c(c4)C[C@H](C)OC5=O)cnc3C2)ccc2c1COC2=O` [Example 44, (3S)-6-{7-[(2R)-2-hydroxy-2-(4-methyl-1-oxo-1,3-dihydro-2-benzofuran-5-yl)ethyl]-5,6,7,8-tetrahydroimidazo[1,2-a]pyrazin-3-yl}-3-methyl-3,4-dihydro-1H-isochromen-1-one]: the IC50 is 301 nM.

`Cc1c(C(O)CN2CCn3cc(-c4ccc5c(c4)COC5=O)nc3C2)ccc2c1COC2=O` (stereo not shown) [Example 34, 5-{1-hydroxy-2-[2-(1-oxo-1,3-dihydro-2-benzofuran-5-yl)-5,6-dihydroimidazo[1,2-a]pyrazin-7(8H)-yl]ethyl}-4-methyl-2-benzofuran-1(3H)-one]: the IC50 was 99.4 nM.

Take `Cc1c(CCN2CCc3nc(-c4ccc(C#N)c(F)c4)ncc3C2)ccc2c1COC2=O` [Example 27]: the half-maximal inhibitory concentration (IC50) was 70.2 nM.

As for `Cc1cc(C#N)ccc1-c1ncc2c(n1)CCN(CCc1ccc3c(c1C)COC3=O)C2` [Example 1, 3-methyl-4-(6-(2-(4-methyl-1-oxo-1,3-dihydroisobenzofuran-5-yl)ethyl)-5,6,7,8-tetrahydropyrido[4,3-d]pyrimidin-2-yl)benzonitrile], the IC50 was determined as 477 nM.

Another assay has as its target T2, ROMK (Kir1.1) (Homo sapiens, UniProt P48048).
T2 sequence (P48048 1-391): T1 sequence (P48048 1-391)
In words: 86Rb+ Efflux Assay, described in WO2013/062892 at pages 79-80. Type of assay: cell-based. The note with it: values marked "(Rb)" in Table 10. From the text:
The data for Examples 2, 3, 4, 8, 9, 10, 15 and 32 were obtained using the ^86Rb^+ Efflux Assay, described in WO2013/062892 at pages 79-80.
With `COc1cc(-c2cn3c(n2)CN(CCc2ccc4c(c2C)COC4=O)CC3)ccc1C#N` [Example 15, 2-methoxy-4-{7-[2-(4-methyl-1-oxo-1,3-dihydro-2-benzofuran-5-yl)ethyl]-5,6,7,8-tetrahydroimidazo[1,2-a]pyrazin-2-yl}benzonitrile], half-maximal inhibition (IC50) was put at 197 nM.

Regarding `N#Cc1ccc(-n2ncc3c2CCN(CCc2ccc4c(c2)COC4=O)C3)cc1` [Example 3, 4-{5-[2-(1-oxo-1,3-dihydro-2-benzofuran-5-yl)ethyl]-4,5,6,7-tetrahydro-1H-pyrazolo[4,3-c]pyridin-1-yl}benzonitrile], the concentration for half-maximal inhibition (IC50) turned out to be 501 nM.

As a reminder, the IC50 is the midpoint of a concentration-inhibition curve.
